Experimental findings from patent US20260022142A1, “MACROCYCLIC IMMUNOMODULATORS” (Bristol-Myers Squibb Company, priority 2022, published 2026) are described below.

Bridge positions count the residues as written; N and C are the ends. Square brackets hold non-standard residues; d marks the D form. Peptide text beside a SMILES is read from it. * marks the point of attachment. ξ: configuration not given here. Bip = N[C@@H](Cc1ccc(-c2ccccc2)cc1)C(=O)O; Phe(3-Me) = Cc1cccc(C[C@H](N)C(=O)O)c1; NMeR = CN[C@@H](CCCNC(=N)N)C(=O)O; hArg = N=C(N)NCCCC[C@H](N)C(=O)O; Cha = N[C@@H](CC1CCCCC1)C(=O)O; Cit = NC(=O)NCCC[C@H](N)C(=O)O; Thr(3ξ) = CC(O)[C@H](N)C(=O)O; Tle = CC(C)(C)[C@H](N)C(=O)O; 12Ado = NCCCCCCCCCCCC(=O)O; dOrn = NCCC[C@@H](N)C(=O)O; dDab = NCC[C@@H](N)C(=O)O; hSer = N[C@@H](CCO)C(=O)O; Carboxymethyl = O=C(O)C*; Orn = NCCC[C@H](N)C(=O)O; Aun = NCCCCCCCCCCC(=O)O; Dab = NCC[C@H](N)C(=O)O; Dap = NC[C@H](N)C(=O)O

In the experiment the target is T1, PD-1/PD-L1 interaction (PE-labeled human PD-L1-Ig binding to Jurkat cell line over-expressing human PD-1) (Homo sapiens, UniProt Q15116).
T1 construct: expressed in transfected cells; host or cells: Jurkat
T1 sequence (Q15116 25-288): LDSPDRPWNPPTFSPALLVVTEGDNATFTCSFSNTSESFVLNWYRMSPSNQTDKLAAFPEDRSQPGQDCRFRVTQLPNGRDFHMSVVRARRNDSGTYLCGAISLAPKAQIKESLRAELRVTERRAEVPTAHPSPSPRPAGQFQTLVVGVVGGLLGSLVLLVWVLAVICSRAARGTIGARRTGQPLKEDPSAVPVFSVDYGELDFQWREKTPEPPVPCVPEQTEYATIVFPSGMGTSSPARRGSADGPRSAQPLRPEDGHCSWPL
The experiment in a line: Jurkat-PD-1 Cell Binding High-Content Screening Assay (CBA). Type of experiment: cell-based. The note with it: Jurkat cell line over-expressing human PD-1; PE-labeled PD-L1-Ig 20 nM final; read-out: Jurkat hPD1-PDL1 IC50. The essentials: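 Read-out is high-content imaging of cell-bound phycoerythrin-tagged PD-L1-Ig on fixed, Hoechst-counterstained Jurkat cells that over-express human PD-1. Compound exposure lasts 2 h at 37° C before the labeled ligand (20 nM final) is added for a further hour.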
For the molecule `CC(=O)NCCCC[C@@H]1NC(=O)[C@H](Cc2ccc(-c3ccccc3)cc2)NC(=O)[C@H](C(C)C)NC(=O)[C@H](Cc2cccc(C)c2)NC(=O)[C@H](CC(=O)O)NC(=O)[C@H](Cc2ccc(OCC(=O)O)cc2)NC(=O)[C@H](CCCNC(=N)N)NC(=O)CSC[C@@H](C(=O)N[C@H](CCN)C(=O)NCCCCCCCCCCC(=O)O)NC(=O)[C@H](C(C)O)NC(=O)[C@H](C(C)C)NC(=O)[C@H](CC2CCCCC2)NC(=O)[C@H](CCN)NC(=O)[C@@H](CC(C)C)NC(=O)[C@H](CCCN)NC1=O` (stereo partly drawn) [Compound 3558] ({CH2CO}-RY(Carboxymethyl)D[Phe(3-Me)]V[Bip]K(Ac)[Orn][dL][Dab][Cha]V[Thr(3ξ)]C[dDab][Aun]-OH; thioether N-14), the 50% inhibitory concentration (IC50) (usually the concentration at which inhibition is half-maximal) amounted to 29.8 nM.

Regarding `CC(=O)NCCCC[C@@H]1NC(=O)[C@H](Cc2ccc(-c3ccccc3)cc2)NC(=O)[C@H](C(C)C)NC(=O)[C@H](Cc2cccc(C)c2)NC(=O)[C@H](CC(=O)O)NC(=O)[C@H](Cc2ccc(OCC(=O)O)cc2)NC(=O)[C@H](CCCNC(=N)N)NC(=O)CSC[C@@H](C(=O)N[C@H](CCCN)C(=O)NCCCCCCCCCCC(=O)O)NC(=O)[C@H](C(C)O)NC(=O)[C@H](C(C)C)NC(=O)[C@H](CC2CCCCC2)NC(=O)[C@H](CCN)NC(=O)[C@@H](CC(C)C)NC(=O)[C@H](CCCN)NC1=O` (stereo partly drawn) [Compound 3559] ({CH2CO}-RY(Carboxymethyl)D[Phe(3-Me)]V[Bip]K(Ac)[Orn][dL][Dab][Cha]V[Thr(3ξ)]C[dOrn][Aun]-OH; thioether N-14), the half-inhibitory concentration (IC50) is 14.1 nM.

With `CC(=O)NCCCC[C@@H]1NC(=O)[C@H](Cc2ccc(-c3ccccc3)cc2)NC(=O)[C@H](C(C)C)NC(=O)[C@H](Cc2cccc(C)c2)NC(=O)[C@H](CC(=O)O)NC(=O)[C@H](Cc2ccc(OCC(=O)O)cc2)NC(=O)[C@H](CCCNC(=N)N)NC(=O)CSC[C@@H](C(=O)N[C@@H](CCN)C(=O)NCCCCCCCCCCC(=O)O)NC(=O)[C@H](C(C)O)NC(=O)[C@H](C(C)(C)C)NC(=O)[C@H](CC2CCCCC2)NC(=O)[C@H](CCN)NC(=O)[C@@H](CC(C)C)NC(=O)[C@H](CCCN)NC1=O` (stereo partly drawn) [Compound 3560] ({CH2CO}-RY(Carboxymethyl)D[Phe(3-Me)]V[Bip]K(Ac)[Orn][dL][Dab][Cha][Tle][Thr(3ξ)]C[Dab][Aun]-OH; thioether N-14), the IC50 was 17.9 nM.

Turning to `Cc1cccc(C[C@@H]2NC(=O)[C@H](CC(=O)O)NC(=O)[C@H](Cc3ccc(OCC(=O)O)cc3)NC(=O)[C@H](CCCNC(=N)N)NC(=O)CSC[C@@H](C(=O)N[C@H](CO)C(=O)NCCCCCCCCCCCC(=O)O)NC(=O)[C@H](C(C)O)NC(=O)[C@H](C(C)C)NC(=O)[C@H](CC3CCCCC3)NC(=O)[C@H](CCN)NC(=O)[C@@H](CC(C)C)NC(=O)[C@H](CCCN)NC(=O)[C@H](CCCNC(N)=O)NC(=O)[C@H](Cc3ccc(-c4ccccc4)cc3)NC(=O)[C@H](C(C)C)NC2=O)c1` (stereo partly drawn) [Compound 3561] ({CH2CO}-RY(Carboxymethyl)D[Phe(3-Me)]V[Bip][Cit][Orn][dL][Dab][Cha]V[Thr(3ξ)]C[dS][12Ado]-OH; thioether N-14), the IC50 was 40.5 nM.

As to `Cc1cccc(C[C@@H]2NC(=O)[C@H](CC(=O)O)NC(=O)[C@H](Cc3ccc(OCC(=O)O)cc3)NC(=O)[C@H](CCCNC(=N)N)N(C)C(=O)CSC[C@@H](C(=O)N[C@@H](CCN)C(=O)NCCCCCCCCCCC(=O)O)NC(=O)[C@H](C(C)O)NC(=O)[C@H](C(C)C)NC(=O)[C@H](CC3CCCCC3)NC(=O)[C@H](CCN)NC(=O)[C@@H](CC(C)C)NC(=O)[C@H](CCCN)NC(=O)[C@H](CCCNC(N)=O)NC(=O)[C@H](Cc3ccc(-c4ccccc4)cc3)NC(=O)[C@H](C(C)C)NC2=O)c1` (stereo partly drawn) [Compound 3562] ({CH2CO}-[NMeR]Y(Carboxymethyl)D[Phe(3-Me)]V[Bip][Cit][Orn][dL][Dab][Cha]V[Thr(3ξ)]C[Dab][Aun]-OH; thioether N-14), the half-inhibitory concentration (IC50) worked out at 28.4 nM.

Consider `CC(=O)NCCCC[C@H](NC(=O)[C@@H]1CSCC(=O)N[C@@H](CCN)C(=O)N[C@@H](Cc2ccc(OCC(=O)O)cc2)C(=O)N[C@@H](CC(=O)O)C(=O)N[C@@H](Cc2cccc(C)c2)C(=O)N[C@@H](C(C)C)C(=O)N[C@@H](Cc2ccc(-c3ccccc3)cc2)C(=O)N[C@@H](CCCNC(N)=O)C(=O)N[C@@H](CCCN)C(=O)N[C@H](CC(C)C)C(=O)N[C@@H](CN)C(=O)N[C@@H](CC2CCCCC2)C(=O)N[C@@H](C(C)C)C(=O)N[C@@H](C(C)O)C(=O)N1)C(=O)NCCCCCCCCCCC(=O)O` (stereo partly drawn) [Compound 3563] ({CH2CO}-[Dab]Y(Carboxymethyl)D[Phe(3-Me)]V[Bip][Cit][Orn][dL][Dap][Cha]V[Thr(3ξ)]CK(Ac)[Aun]-OH; thioether N-14), for which the IC50 stood at 43.9 nM.

For the molecule `Cc1cccc(C[C@@H]2NC(=O)[C@H](CC(=O)O)NC(=O)[C@H](Cc3ccc(OCC(=O)O)cc3)NC(=O)[C@H](CCCNC(=N)N)NC(=O)CSC[C@@H](C(=O)N[C@@H](CCO)C(=O)N[C@@H](CCC(=O)O)C(=O)NCCCCCCCCCCCC(=O)O)NC(=O)[C@H](C(C)O)NC(=O)[C@H](C(C)C)NC(=O)[C@H](CC3CCCCC3)NC(=O)[C@H](CCN)NC(=O)[C@@H](CC(C)C)NC(=O)[C@H](CCCN)NC(=O)[C@H](CCCNC(N)=O)NC(=O)[C@H](Cc3ccc(-c4ccccc4)cc3)NC(=O)[C@H](C(C)C)NC2=O)c1` (stereo partly drawn) [Compound 3564] ({CH2CO}-RY(Carboxymethyl)D[Phe(3-Me)]V[Bip][Cit][Orn][dL][Dab][Cha]V[Thr(3ξ)]C[hSer]E[12Ado]-OH; thioether N-14), the IC50 worked out at 19.5 nM.

On to `Cc1cccc(C[C@@H]2NC(=O)[C@H](CC(=O)O)NC(=O)[C@H](Cc3ccc(OCC(=O)O)cc3)NC(=O)[C@H](CCCNC(=N)N)NC(=O)CSC[C@@H](C(=O)N[C@@H](CCO)C(=O)NCCCCCCCCCCCC(=O)O)NC(=O)[C@H](C(C)O)NC(=O)[C@H](C(C)C)NC(=O)[C@H](CC3CCCCC3)NC(=O)[C@H](CCN)NC(=O)[C@@H](CC(C)C)NC(=O)[C@H](CCCN)NC(=O)[C@H](CCCNC(N)=O)NC(=O)[C@H](Cc3ccc(-c4ccccc4)cc3)NC(=O)[C@H](C(C)C)NC2=O)c1` (stereo partly drawn) [Compound 3565] ({CH2CO}-RY(Carboxymethyl)D[Phe(3-Me)]V[Bip][Cit][Orn][dL][Dab][Cha]V[Thr(3ξ)]C[hSer][12Ado]-OH; thioether N-14), for which the half-maximal inhibitory concentration (IC50) was determined as 39.4 nM.

In the case of `Cc1cccc(C[C@@H]2NC(=O)[C@H](CC(=O)O)NC(=O)[C@H](Cc3ccc(OCC(=O)O)cc3)NC(=O)[C@H](CCO)NC(=O)CSC[C@@H](C(=O)N[C@@H](CCO)C(=O)N[C@@H](CO)C(=O)NCCCCCCCCCCCC(=O)O)NC(=O)[C@H](C(C)O)NC(=O)[C@H](C(C)C)NC(=O)[C@H](CC3CCCCC3)NC(=O)[C@H](CCN)NC(=O)[C@@H](CC(C)C)NC(=O)[C@H](CCCN)NC(=O)[C@H](CCCNC(N)=O)NC(=O)[C@H](Cc3ccc(-c4ccccc4)cc3)NC(=O)[C@H](C(C)C)NC2=O)c1` (stereo partly drawn) [Compound 3566] ({CH2CO}-[hSer]Y(Carboxymethyl)D[Phe(3-Me)]V[Bip][Cit][Orn][dL][Dab][Cha]V[Thr(3ξ)]C[hSer]S[12Ado]-OH; thioether N-14), the 50% inhibitory concentration (IC50) amounted to 19.2 nM.

As to `Cc1cccc(C[C@@H]2NC(=O)[C@H](CC(=O)O)NC(=O)[C@H](Cc3ccc(OCC(=O)O)cc3)NC(=O)[C@H](C(C)O)NC(=O)CSC[C@@H](C(=O)N[C@@H](CCC(=O)O)C(=O)N[C@@H](CO)C(=O)NCCCCCCCCCCC(=O)O)NC(=O)[C@H](C(C)O)NC(=O)[C@H](C(C)C)NC(=O)[C@H](CC3CCCCC3)NC(=O)[C@H](CCN)NC(=O)[C@@H](CC(C)C)NC(=O)[C@H](CCCN)NC(=O)[C@H](CCCNC(N)=O)NC(=O)[C@H](Cc3ccc(-c4ccccc4)cc3)NC(=O)[C@H](C(C)C)NC2=O)c1` (stereo partly drawn) [Compound 3567] ({CH2CO}-[Thr(3ξ)]Y(Carboxymethyl)D[Phe(3-Me)]V[Bip][Cit][Orn][dL][Dab][Cha]V[Thr(3ξ)]CES[Aun]-OH; thioether N-14), the IC50 amounted to 33.5 nM.

`Cc1cccc(C[C@@H]2NC(=O)[C@H](CC(=O)O)NC(=O)[C@H](Cc3ccc(OCC(=O)O)cc3)NC(=O)[C@H](CCCCNC(=N)N)NC(=O)CSC[C@@H](C(=O)N[C@@H](CCCN)C(=O)N[C@@H](CCO)C(=O)NCCCCCCCCCCCC(=O)O)NC(=O)[C@H](C(C)O)NC(=O)[C@H](C(C)C)NC(=O)[C@H](CC3CCCCC3)NC(=O)[C@H](CCN)NC(=O)[C@@H](CC(C)C)NC(=O)[C@H](CCCN)NC(=O)[C@H](CCCNC(N)=O)NC(=O)[C@H](Cc3ccc(-c4ccccc4)cc3)NC(=O)[C@H](C(C)C)NC2=O)c1` (stereo partly drawn) [Compound 3568] ({CH2CO}-[hArg]Y(Carboxymethyl)D[Phe(3-Me)]V[Bip][Cit][Orn][dL][Dab][Cha]V[Thr(3ξ)]C[Orn][hSer][12Ado]-OH; thioether N-14): the half-inhibitory concentration (IC50) amounted to 15.1 nM.

For the molecule `Cc1cccc(C[C@@H]2NC(=O)[C@H](CC(=O)O)NC(=O)[C@H](Cc3ccc(OCC(=O)O)cc3)NC(=O)[C@H](CO)NC(=O)CSC[C@@H](C(=O)N[C@@H](CCO)C(=O)N[C@@H](CO)C(=O)NCCCCCCCCCCCC(=O)O)NC(=O)[C@H](C(C)O)NC(=O)[C@H](C(C)C)NC(=O)[C@H](CC3CCCCC3)NC(=O)[C@H](CCN)NC(=O)[C@@H](CC(C)C)NC(=O)[C@H](CCCN)NC(=O)[C@H](CCCNC(N)=O)NC(=O)[C@H](Cc3ccc(-c4ccccc4)cc3)NC(=O)[C@H](C(C)C)NC2=O)c1` (stereo partly drawn) [Compound 3569] ({CH2CO}-SY(Carboxymethyl)D[Phe(3-Me)]V[Bip][Cit][Orn][dL][Dab][Cha]V[Thr(3ξ)]C[hSer]S[12Ado]-OH; thioether N-14), the IC50 is 23.6 nM.

In the case of `Cc1cccc(C[C@@H]2NC(=O)[C@H](CC(=O)O)NC(=O)[C@H](Cc3ccc(OCC(=O)O)cc3)NC(=O)[C@H](CCCCNC(=N)N)NC(=O)CSC[C@@H](C(=O)N[C@@H](CCN)C(=O)N[C@@H](CO)C(=O)NCCCCCCCCCCCC(=O)O)NC(=O)[C@H](C(C)O)NC(=O)[C@H](C(C)C)NC(=O)[C@H](CC3CCCCC3)NC(=O)[C@H](CCN)NC(=O)[C@@H](CC(C)C)NC(=O)[C@H](CCCN)NC(=O)[C@H](CCCNC(N)=O)NC(=O)[C@H](Cc3ccc(-c4ccccc4)cc3)NC(=O)[C@H](C(C)C)NC2=O)c1` (stereo partly drawn) [Compound 3570] ({CH2CO}-[hArg]Y(Carboxymethyl)D[Phe(3-Me)]V[Bip][Cit][Orn][dL][Dab][Cha]V[Thr(3ξ)]C[Dab]S[12Ado]-OH; thioether N-14), the IC50 came to 16.3 nM.
